Consider eight compounds from ChEMBL document CHEMBL1201862, “PubChem BioAssay data set” (2004).

Activity calls are given as the source filed them.

What is called EC50 is the concentration needed to bring the measured effect to its halfway point. The term AC50 denotes the concentration giving half of the maximal activity seen. One may read the IC50 as the concentration at which inhibition is half-maximal.

Assay [1] in a line: microbe, parasite or virus in culture. In kind it is functional. The conditions noted are these: Mycobacterium tuberculosis.
In assay [2] the target is T1, Short transient receptor potential channel 4 (Mus musculus, UniProt Q9QUQ5).
T1 sequence (Q9QUQ5 whole entry): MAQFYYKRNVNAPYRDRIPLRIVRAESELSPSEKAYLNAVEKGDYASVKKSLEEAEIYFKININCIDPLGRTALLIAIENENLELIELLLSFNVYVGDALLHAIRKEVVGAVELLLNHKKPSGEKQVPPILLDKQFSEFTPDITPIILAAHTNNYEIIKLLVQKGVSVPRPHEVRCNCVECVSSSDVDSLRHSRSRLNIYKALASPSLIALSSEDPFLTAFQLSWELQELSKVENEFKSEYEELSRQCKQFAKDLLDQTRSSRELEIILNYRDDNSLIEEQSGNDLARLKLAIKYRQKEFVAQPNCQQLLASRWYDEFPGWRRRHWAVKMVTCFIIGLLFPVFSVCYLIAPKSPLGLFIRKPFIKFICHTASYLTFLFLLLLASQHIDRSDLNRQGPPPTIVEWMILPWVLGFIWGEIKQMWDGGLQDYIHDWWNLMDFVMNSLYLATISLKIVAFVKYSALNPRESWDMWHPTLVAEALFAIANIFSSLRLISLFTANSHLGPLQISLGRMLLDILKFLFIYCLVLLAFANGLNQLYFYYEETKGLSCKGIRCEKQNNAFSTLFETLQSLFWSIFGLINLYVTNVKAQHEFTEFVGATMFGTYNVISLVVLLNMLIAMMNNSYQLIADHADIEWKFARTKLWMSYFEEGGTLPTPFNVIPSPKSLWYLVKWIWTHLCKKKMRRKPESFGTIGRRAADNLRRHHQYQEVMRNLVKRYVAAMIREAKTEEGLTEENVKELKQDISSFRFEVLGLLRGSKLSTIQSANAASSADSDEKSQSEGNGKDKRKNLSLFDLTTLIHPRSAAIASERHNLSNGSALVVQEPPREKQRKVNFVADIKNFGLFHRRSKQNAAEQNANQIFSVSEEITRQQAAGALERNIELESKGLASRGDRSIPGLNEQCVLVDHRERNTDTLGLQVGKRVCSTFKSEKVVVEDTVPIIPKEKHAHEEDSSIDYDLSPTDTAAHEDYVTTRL
As to the kind of experiment: calcium entry via TRPC4 opening agents – cell-based, HEK293 TRPC4/mu-opioid, Fluo-4 calcium, dose response (AID 434937). The assay is classed as functional.

Assay [3] is described as follows: Luminescence Cell-Based Dose Retest to Confirm Inhibitors of Cancer Stem Cells. [Related pubchem assays (depositor defined):AID2717, AID2721]. In kind it is functional. Conditions: Homo sapiens.
Assay [4] relates to HEK293. As to the kind of experiment: cells. The assay is classed as functional, cell-based. Conditions: Homo sapiens.
Assay [5] relates to HEK293. As to the kind of experiment: NOD2 signaling inhibitors in MDP-stimulated cells, cell-based, uHTS, luminescence (AID 2001). In kind it is functional. The conditions noted are these: Homo sapiens.
In assay [6] the target is Heat shock protein HSP 90-alpha (Homo sapiens, UniProt P07900). The assay is classed as functional, organism-based.
In assay [7] the test system is HEK293. As to the kind of experiment: cells. The assay is classed as functional, cell-based. The conditions noted are these: Homo sapiens. This is another data set of the same source.
In assay [8] the test system is HEK293. The assay can be described thus: inhibition of NOD1-driven NF-kB reporter – cell-based, luminescence, uHTS, primary screen (AID 1578). Conditions: Homo sapiens. The assay is classed as functional.
Assay [9] has as its target T2, CAAX prenyl protease 2 (Homo sapiens, UniProt Q9Y256).
T2 sequence (Q9Y256 whole entry): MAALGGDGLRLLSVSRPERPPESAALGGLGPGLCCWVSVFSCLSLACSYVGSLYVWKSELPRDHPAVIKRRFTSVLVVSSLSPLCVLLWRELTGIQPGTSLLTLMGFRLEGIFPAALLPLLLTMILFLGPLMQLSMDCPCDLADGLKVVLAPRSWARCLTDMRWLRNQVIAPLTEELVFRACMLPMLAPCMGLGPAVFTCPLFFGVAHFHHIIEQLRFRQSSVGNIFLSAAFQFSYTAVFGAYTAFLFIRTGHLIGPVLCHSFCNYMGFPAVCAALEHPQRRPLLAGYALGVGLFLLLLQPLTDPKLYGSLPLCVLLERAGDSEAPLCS
As to the kind of experiment: inhibition of Ras-converting CAAX protease Rce1 – biochemical, yeast membranes, quenched-peptide fluorescence, cherry-pick, dose response (AID 588849).

The target in assay [10] is Trypsin (Sus scrofa, UniProt P00761). As to the kind of experiment: trypsin protease activity blockade – biochemical, quenched peptide fluorescence, cherry-pick, selectivity assay for Rce1 protease inhibitor project, dose response (AID 488789).
Trypsin, sequence (P00761 whole entry): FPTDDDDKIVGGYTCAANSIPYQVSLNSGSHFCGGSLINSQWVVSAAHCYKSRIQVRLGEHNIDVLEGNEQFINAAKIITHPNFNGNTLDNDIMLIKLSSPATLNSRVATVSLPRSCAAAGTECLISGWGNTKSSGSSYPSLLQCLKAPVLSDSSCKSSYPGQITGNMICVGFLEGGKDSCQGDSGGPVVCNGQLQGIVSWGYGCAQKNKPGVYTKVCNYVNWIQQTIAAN
Assay [11] addresses T3, Endoribonuclease toxin MazF (Escherichia coli K-12, UniProt P0AE70).
T3 sequence (P0AE70 whole entry): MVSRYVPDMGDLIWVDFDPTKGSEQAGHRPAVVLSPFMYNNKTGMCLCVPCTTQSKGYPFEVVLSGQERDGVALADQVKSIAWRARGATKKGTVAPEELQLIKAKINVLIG
As to the kind of experiment: substrate-only fluorescence increase artefacts – biochemical, single-stranded RNase substrate, counter-screen for MazEF activator project, dose response (AID 588502). The assay is classed as functional. For orientation: The purpose of a counterscreen is to sort out artefacts and off-target activity.

Assay [12] deals with T3, Endoribonuclease toxin MazF. The assay can be described thus: activation of MazEF endoribonuclease cleavage – biochemical, fluorescence, single-stranded RNA substrate, uHTS hits, dose response (AID 588481). In kind it is functional.
Assay [13] in a line: cells.
Assay [14] is described as follows: Trypanosoma cruzi growth suppression in host cells – NIH3T3 host cells, beta-gal luminescence, confirmation (AID 2044).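 Note: intracellular parasites grown in NIH/3T3 mouse fibroblasts as host cells; luminescent beta-galactosidase reporter signal from transgenic T. cruzi replicating inside host cells; inhibitors lower the luminescence signal.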 In kind it is functional, cell-based.
Assay [15] is described as follows: NIH3T3 cell viability loss – ATP luminescence, mouse fibroblasts, counter-screen, dose response (AID 2010).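 Note: cells exposed to compound for about 90 hours before reading.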 In kind it is functional, cell-based.
Assay [16] can be described thus: cells. In kind it is functional, cell-based.
The nature of assay [17]: cells. The assay is classed as functional, cell-based. This is another data set of the same source.
Assay [18] relates to Vero. As to the kind of experiment: cells. In kind it is functional. Conditions: Chlorocebus sabaeus.
Assay [19] can be described thus: Luminescence Cell-Based Dose Confirmation HTS to Identify Activators of 5'UTR Stem-Loop Driven Alpha-Synuclein mRNA Translation in H4 Neuroglioblastoma Cells. [Related pubchem assays: 1829 (Project Summary), 1814 (Primary HTS)]. In kind it is functional.
Assay [20] concerns H4. As to the kind of experiment: Luminescence Cell-Based Dose Response HTS to Identify Activators of 5'UTR Stem-Loop Driven Prion Protein mRNA Translation in H4 Neuroglioblastoma Cells. [Related pubchem assays: 1829 (Project Summary), 1814 (Primary HTS)]. The conditions noted are these: Homo sapiens. In kind it is functional.
Assay [21] can be described thus: Luminescence Cell-Based Dose Response HTS to Identify Activators of Luciferase Translation or Activity in H4 […] Cells. [Related pubchem assays: 1829 (Project Summary), 1814 (Primary HTS)]. The assay is classed as functional.
The subject of assay [22] is Vero. As to the kind of experiment: cells. In kind it is functional, cell-based. The conditions noted are these: Chlorocebus sabaeus.
Assay [23] is described as follows: viability of uninfected HEp-2 cells – cell-based, HTS, cytotoxicity control for RSV inhibitor project, dose response (AID 2410). In kind it is functional. Conditions: human respiratory syncytial virus.

As for `O=C(Nc1nnc(-c2ccccc2Cl)o1)c1nc2ccccc2s1`, the CC50 in assay [1] was > 40 µM (active). Further, the half-maximal effective concentration (EC50) in assay [2] was 4.73 µM (active).
Regarding `CCOC(=O)C(=Cc1ccc(-n2cncn2)cc1)C(=O)OCC`, the AC50 is 3.47 µM (active) in assay [3] and 7.37 µM (active) in [6]. The half-inhibitory concentration (IC50) in assay [4] is 5.19 µM (active); in assay [5], 10.9 µM (inactive); in [7] it was > 20 µM (inactive). The EC50 in [8] is > 20 µM (inactive).
`Nc1ccccc1Oc1ccc2ccccc2c1`: the AC50 in assay [9] was 5.84 µM (active); in [10], 6.89 µM (active).
In the case of `O=C(CC1C(=O)NCCN1Cc1ccccc1C(F)(F)F)NCCc1ccccn1` (configuration not stated), the EC50 in assay [2] was 6.68 µM (active).
As for `Cc1ccc(S(=O)(=O)NN)c(C)c1N1CCCC1=O`, the figures for the EC50 in [11] and in assay [12] were 10.6 µM (active) and 58.2 µM (inactive), respectively.
For the compound `CN(C)CCCN(C(=O)c1ccc(S(=O)(=O)N2CCOCC2)cc1)c1nc2ccc(F)cc2s1`, the EC50 in assay [13] is 0.02 µM (active); in [14], < 0.1 µM (active); in [2], 9.44 µM (active); in assay [15], > 30 µM (not active).
`CCOC(=O)C(=Cc1ccc(OCc2ccc([N+](=O)[O-])cc2)c(OC)c1)C(=O)OCC`: the EC50 was > 350 µM (not active) in [16]; 70 µM (active) in assay [17]; 0.171 µM (active) in assay [19]; 0.246 µM (active) in [20]; 1.18 µM (active) in assay [21]; 10.6 µM (active) in assay [8]. For the same compound, in assay [3], the AC50 is 1.79 µM (active). In addition, the CC50 in [18] is 9.93 µM (active). Besides, the 50% inhibitory concentration (IC50) was 2.07 µM (active) in [4], 5.14 µM (active) in assay [5], 12.8 µM (active) in assay [7] and > 25 µM (active) in [22].
In the case of `Cc1ccc([N+](=O)[O-])cc1N/C=C1\CCCCC1=O`, the CC50 in assay [23] was 18.4 µM (active). Moreover, the EC50 in assay [11] and in assay [12] was > 99 µM (inactive) throughout.
